Laboratory results: patent publication US11708346B2, “Treatment and prevention of neuropathic pain with P2Y14 antagonists” (Saint Louis University, priority 2019, dated 2023)
Where “and” joins values, the source holds several entries; their conditions need not be identical. Equal values may be shown once. Entries after “also recorded” stand apart in the source; their conditions may differ.

Columns and labels:
[1] = test system: CCI-induced mechano-allodynia; assay: Chronic constriction injury (CCI) of the sciatic nerve, mechano-allodynia by von Frey filaments; type: in vivo, mouse; details: for Effect at 0.5 h (% ± SD), percent inhibition of mechano-allodynia / Effect at 1 h (% + SD), percent inhibition of mechano-allodynia / Effect at 2 h (% ± SD), percent inhibition of mechano-allodynia / Effect at 3 h (% ± SD), percent inhibition of mechano-allodynia / Effect at 5 h (% ± SD), percent inhibition of mechano-allodynia / ED50 / Reversal of CCI-induced mechano-allodynia: day 7 post-CCI; for Effect at 0.5 h (% ± SD), percent inhibition of mechano-allodynia / Effect at 1 h (% + SD), percent inhibition of mechano-allodynia / Effect at 2 h (% ± SD), percent inhibition of mechano-allodynia / Effect at 3 h (% ± SD), percent inhibition of mechano-allodynia / Effect at 5 h (% ± SD), percent inhibition of mechano-allodynia: n = 3; for ED50: Mus musculus, ip, read-out: ED50 at 1 h (95% CI), reversal of mechano-allodynia, 1 h post drug; for Reversal of CCI-induced mechano-allodynia: ipsilateral hind paw
Method: Chronic constriction injury (CCI) to the sciatic nerve was performed using the Bennett model. […] Then the animals were placed on a sterile surgical field and the skin was wiped with topical antiseptic, Dermachlor solution (0.2% chlorhexidine gluconate). […] A small incision was created on the lateral side of the left hind limb parallel to the femur. The sciatic nerve was exposed and ligated on two sites about 1 mm apart above the trifurcation using silk sutures 6.0. The incision was closed with clips and lidocaine cream was applied.
Mice were acclimated to the testing mesh-rack for 30 min before behavioral measurements. All behavioral testing was performed in the morning. The baseline measurements were determined on day 0 before CCI procedure. On day 7 post-CCI, baseline behavior responses were assessed, beginning prior to drug administration. Following drug injection, the behaviors were evaluated at multiple time points. Mechano-allodynia was quantified according to the hind paw withdrawal response to von Frey filaments stimulation by the Dixon up-and-down method. […] In presence of a positive withdrawal response a lighter filament was applied. If a negative response occurred, a stronger filament was used. At least four readings are obtained after the first positive response and the pattern of response was converted to a 50% paw withdrawal threshold (PWT), using the method described by Chaplan et al., J. Neurosci.
Data are expressed as mean±SD and analyzed by two-tailed, two-way repeated measures ANOVA with Dunnett's post hoc comparisons to day 7 behavior. The percentage of reversal of peak CCI-induced pain afforded by each drug was calculated for each animal using their baseline and day 7 post CCI behavioral measures. % Reversal=(PWT(g)t−PWT(g)day7)/PWT(g)day0−PWT(g)day7)×100, where PWT(g)=paw withdrawal threshold, t=time after drug. […] All statistical analyses were performed using GraphPad Prism 8 (Graph Pad Inc., San Diego, Calif.). Significance was accepted at p<0.05.

hP2Y14R = target: T1, hP2Y14R (Homo sapiens, UniProt Q15391); assay: Competitive fluorescent binding assay in whole CHO-hP2Y14R cells, tracer 20, flow cytometry; details: read-out: Human P2Y14R binding affinity (IC50)
T1 construct: expressed in transfected cells; host or cells: CHO
T1 sequence (Q15391 1-338): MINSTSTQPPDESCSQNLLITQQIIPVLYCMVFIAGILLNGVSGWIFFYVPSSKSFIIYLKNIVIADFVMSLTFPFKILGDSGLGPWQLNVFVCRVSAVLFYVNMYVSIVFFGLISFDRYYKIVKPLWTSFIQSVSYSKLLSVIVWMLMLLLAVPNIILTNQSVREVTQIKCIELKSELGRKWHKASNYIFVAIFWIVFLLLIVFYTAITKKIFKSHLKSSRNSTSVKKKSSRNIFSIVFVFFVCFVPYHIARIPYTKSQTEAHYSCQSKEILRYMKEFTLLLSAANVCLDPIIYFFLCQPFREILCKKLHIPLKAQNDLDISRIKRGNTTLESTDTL

mP2Y14R = target: T2, mP2Y14R (Mus musculus, UniProt Q9ESG6); details: read-out: Mouse P2Y14R binding affinity (IC50); mP2Y14R in HEK293 cells, tracer 20
T2 sequence (Q9ESG6 1-338): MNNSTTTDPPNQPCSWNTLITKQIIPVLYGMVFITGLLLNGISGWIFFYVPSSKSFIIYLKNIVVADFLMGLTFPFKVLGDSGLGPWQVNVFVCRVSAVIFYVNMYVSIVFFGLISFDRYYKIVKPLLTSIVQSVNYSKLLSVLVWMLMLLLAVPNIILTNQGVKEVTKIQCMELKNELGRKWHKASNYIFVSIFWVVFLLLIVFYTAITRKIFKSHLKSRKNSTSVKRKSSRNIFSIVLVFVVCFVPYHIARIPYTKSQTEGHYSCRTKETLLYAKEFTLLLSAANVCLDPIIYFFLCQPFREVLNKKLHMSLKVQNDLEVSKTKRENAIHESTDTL

5HT1D = 5HT1D (Homo sapiens, UniProt P28221); assay: PDSP off-target binding; details: ± SEM
CB2 cannabinoid receptor = target: T3, CB2 cannabinoid receptor (Homo sapiens, UniProt P34972); assay: PRESTO-Tango agonist/antagonist assay; type: cell-based
T3 construct: expressed in transfected cells
Method: (§1) Synthesis of 7 was performed using a Sonogashira reaction (11 to 12), click reaction (13 to 14) and a Suzuki reaction (15 to 16) followed by two-step deprotection. […].

CB1 cannabinoid receptor = target: T4, CB1 cannabinoid receptor (Homo sapiens, UniProt P21554); assay: PRESTO-Tango agonist/antagonist assay; type: cell-based
T4 construct: expressed in transfected cells
Method: as §1

T4 sequence (P21554 whole entry): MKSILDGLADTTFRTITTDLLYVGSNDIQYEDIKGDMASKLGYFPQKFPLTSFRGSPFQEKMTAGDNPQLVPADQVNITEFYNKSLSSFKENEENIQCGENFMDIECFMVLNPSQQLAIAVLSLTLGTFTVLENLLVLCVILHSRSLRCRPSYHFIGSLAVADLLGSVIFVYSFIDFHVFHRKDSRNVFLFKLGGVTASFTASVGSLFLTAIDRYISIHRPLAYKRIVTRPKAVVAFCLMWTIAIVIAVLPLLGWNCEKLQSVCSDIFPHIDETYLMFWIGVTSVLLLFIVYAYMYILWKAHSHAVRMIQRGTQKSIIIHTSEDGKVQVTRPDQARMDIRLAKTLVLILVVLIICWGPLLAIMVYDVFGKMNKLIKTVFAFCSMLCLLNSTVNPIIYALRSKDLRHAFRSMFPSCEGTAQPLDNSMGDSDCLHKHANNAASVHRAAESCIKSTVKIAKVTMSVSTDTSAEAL
T3 sequence (P34972 whole entry): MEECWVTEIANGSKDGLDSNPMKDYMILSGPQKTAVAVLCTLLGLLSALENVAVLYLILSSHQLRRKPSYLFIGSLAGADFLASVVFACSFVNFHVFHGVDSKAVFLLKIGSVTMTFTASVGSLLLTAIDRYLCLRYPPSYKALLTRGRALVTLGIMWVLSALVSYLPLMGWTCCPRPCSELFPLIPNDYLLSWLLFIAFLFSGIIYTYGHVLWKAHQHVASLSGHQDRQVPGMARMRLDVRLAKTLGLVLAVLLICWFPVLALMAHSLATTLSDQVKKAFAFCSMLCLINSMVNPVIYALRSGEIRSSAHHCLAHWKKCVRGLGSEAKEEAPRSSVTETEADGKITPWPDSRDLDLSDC
Sequence of 5HT1D (P28221 whole entry, species assumed): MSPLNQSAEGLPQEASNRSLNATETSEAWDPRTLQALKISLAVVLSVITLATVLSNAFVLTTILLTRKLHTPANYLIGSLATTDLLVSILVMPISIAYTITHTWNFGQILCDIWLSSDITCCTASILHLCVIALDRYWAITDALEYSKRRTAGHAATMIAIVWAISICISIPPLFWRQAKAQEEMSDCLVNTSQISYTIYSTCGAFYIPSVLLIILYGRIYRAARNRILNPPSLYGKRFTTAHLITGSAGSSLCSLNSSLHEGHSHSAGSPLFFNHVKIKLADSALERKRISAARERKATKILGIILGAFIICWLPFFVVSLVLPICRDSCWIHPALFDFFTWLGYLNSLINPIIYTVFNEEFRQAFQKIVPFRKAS

SMILES	Effect at 0.5 h (% ± SD), percent inhibition of mechano-allodynia ([1]; 10 μmol/kg, i.p.) [%]	Effect at 1 h (% + SD), percent inhibition of mechano-allodynia ([1]; 10 μmol/kg, i.p.)	Effect at 2 h (% ± SD), percent inhibition of mechano-allodynia ([1]; 10 μmol/kg, i.p.) [%]	Effect at 3 h (% ± SD), percent inhibition of mechano-allodynia ([1]; 10 μmol/kg, i.p.) [%]	Effect at 5 h (% ± SD), percent inhibition of mechano-allodynia ([1]; 10 μmol/kg, i.p.) [%]	IC50 (hP2Y14R) [nM]	Reversal of CCI-induced mechano-allodynia ([1]; 10 μmol/kg, i.p.)	IC50 (mP2Y14R) [nM]	further results
O=C(O)c1cc(-c2ccc(C3CCNCC3)cc2)cc(-n2cc(-c3ccc(C(F)(F)F)cc3)nn2)c1 [Compound 6]	52.4 ± 9.6	67.4 ± 7.0%	57.2 ± 13.3	31.9 ± 16.8	12.7 ± 13.2	–	–	–	Effect at 0.5 h (% ± SD), percent inhibition of mechano-allodynia ([1]; 1 μmol/kg, i.p.): 8.7 ± 15.1%; Effect at 1 h (% + SD), percent inhibition of mechano-allodynia ([1]; 1 μmol/kg, i.p.): 18.7 ± 21.3%; Effect at 2 h (% ± SD), percent inhibition of mechano-allodynia ([1]; 1 μmol/kg, i.p.): 18.7 ± 21.3%; Effect at 3 h (% ± SD), percent inhibition of mechano-allodynia ([1]; 1 μmol/kg, i.p.): 8.7 ± 7.6%; Effect at 5 h (% ± SD), percent inhibition of mechano-allodynia ([1]; 1 μmol/kg, i.p.): 8.7 ± 15.1%; Effect at 0.5 h (% ± SD), percent inhibition of mechano-allodynia ([1]; 3 μmol/kg, i.p.): 44.6 ± 16.6%; Effect at 1 h (% + SD), percent inhibition of mechano-allodynia ([1]; 3 μmol/kg, i.p.): 53.3 ± 24.2%; Effect at 2 h (% ± SD), percent inhibition of mechano-allodynia ([1]; 3 μmol/kg, i.p.): 44.6 ± 16.6%; Effect at 3 h (% ± SD), percent inhibition of mechano-allodynia ([1]; 3 μmol/kg, i.p.): 35.6 ± 11.7%; Effect at 5 h (% ± SD), percent inhibition of mechano-allodynia ([1]; 3 μmol/kg, i.p.): 0.0 ± 0.0%; In vivo efficacy compared with a comparator compound ([1]; 10 μmol/kg i.p., 6 vs 7, 4 vs 1): no statistical difference; ED50 ([1]; i.p.): 3.5 µmol/kg
O=C(O)c1cc(O)c2ccc(-c3ccc(C(F)(F)F)cc3)cc2c1 [Compound 2]	23.4 ± 21.2	64.2 ± 24.9%	59.8 ± 18.1	35.2 ± 22.2	0.0 ± 0.0	3200 ± 640	reversed the allodynia	1600 ± 250	–
NCCCNC(=O)c1ccc(-c2cc(C(=O)O)cc(-n3cc(-c4ccc(C(F)(F)F)cc4)nn3)c2)s1 [Compound 8]	81.0 ± 6.9	91.5 ± 7.4%	74.0 ± 28.5	30.9 ± 21.0	10.0 ± 17.3	169 ± 42	–	384	Ki (5HT1D): 6.7 µM; Emax, in vivo efficacy ([1]; 10 μmol/kg i.p.): 91.5%
NCCOCCOCCOCCOCCOCCOCCC(=O)N1CCC(c2ccc(-c3cc(C(=O)O)cc4cc(-c5ccc(C(F)(F)F)cc5)ccc34)cc2)CC1 [Compound 21]	–	–	–	–	–	–	fully efficacious	–	Time of peak protection ([1]; 10 μmol/kg i.p., after injection): 1 to 2 h; Effect on paw withdrawal threshold at the contralateral hind paw ([1]; 10 μmol/kg, i.p., versus vehicle control): No effect
C#CCCCCN1CCC(c2ccc(-c3cc(C(=O)O)cc4cc(-c5ccc(C(F)(F)F)cc5)ccc34)cc2)CC1 [Compound 3]	52.4 ± 23.3	75.9 ± 15.0%	42.7 ± 9.6	9.6 ± 16.7	0.0 ± 0.0	76.3 ± 24.4	–	130 ± 30	Ratio of protection at 3 h divided by the protection at 5 h (duration of action) ([1]; 10 μmol/kg i.p.): 0.13
O=C(O)c1cc(-c2ccc(C3CCNCC3)cc2)c2ccc(-c3ccc(C(F)(F)F)cc3)cc2c1 [Compound 1, 4-[4-(piperidin-4-yl)phenyl]-7-[4-(rifluoromethyl)phenyl]-2-naphthoic acid]	87.9 ± 12.9	100% and 100 ± 0.0%	96.4 ± 6.2	78.6 ± 9.4	21.3 ± 14.1	–	fully efficacious; also recorded: reversed the allodynia	–	Effect at 0.5 h (% ± SD), percent inhibition of mechano-allodynia ([1]; 1 μmol/kg, i.p.): 10.0 ± 17.3%; Effect at 1 h (% + SD), percent inhibition of mechano-allodynia ([1]; 1 μmol/kg, i.p.): 19.9 ± 17.3%; Effect at 2 h (% ± SD), percent inhibition of mechano-allodynia ([1]; 1 μmol/kg, i.p.): 10.0 ± 17.3%; Effect at 3 h (% ± SD), percent inhibition of mechano-allodynia ([1]; 1 μmol/kg, i.p.): 4.7 ± 8.2%; Effect at 5 h (% ± SD), percent inhibition of mechano-allodynia ([1]; 1 μmol/kg, i.p.): 4.7 ± 8.2%; Effect at 0.5 h (% ± SD), percent inhibition of mechano-allodynia ([1]; 3 μmol/kg, i.p.): 62.9 ± 18.7%; Effect at 1 h (% + SD), percent inhibition of mechano-allodynia ([1]; 3 μmol/kg, i.p.): 79.3 ± 2.2%; Effect at 2 h (% ± SD), percent inhibition of mechano-allodynia ([1]; 3 μmol/kg, i.p.): 76.9 ± 6.3%; Effect at 3 h (% ± SD), percent inhibition of mechano-allodynia ([1]; 3 μmol/kg, i.p.): 64.7 ± 17.2%; Effect at 5 h (% ± SD), percent inhibition of mechano-allodynia ([1]; 3 μmol/kg, i.p.): 8.7 ± 15.1%; ED50 ([1]; i.p.): 1.6 µmol/kg; IC50 (CB2 cannabinoid receptor): > 50 µM; IC50 (CB1 cannabinoid receptor): > 50 µM
CCC(=O)N1CCC(c2ccc(-c3cc(C(=O)O)cc4cc(-c5ccc(C(F)(F)F)cc5)ccc34)cc2)CC1 [Compound 5, 4-(4-(1-(Propionyl)piperidin-4-yl)phenyl)-7-(4-(trifluoromethyl)phenyl)-2-naphthoic acid]	32.9 ± 5.7	77.2 ± 26.1%	71.6 ± 19.8	55.7 ± 27.1	5.6 ± 6.4	41.8 ± 1.8	–	38	–
